# Values of other authors as cited in patent publication US20220372506A1, “CYP81E GENES […] TOLERANCE” (Colorado State University Research Foundation, priority 2020, published 2022).
# Entries after “also recorded” stand apart in the source; their conditions may differ.
# Tests used:
# [1] = tested on: A. tuberculatus NEB population
# [2] = tested on: A. tuberculatus CHR population; conditions: CHR population compared to WUS; for level of resistance (dose response): Evans et al. 2019
# [3] = tested on: A. tuberculatus NEB population; conditions: malathion pre-treatment before 2,4-D, Figueiredo et al. 2018
structure (smiles),measurement,setting,value
"O=C(O)COc1ccc(Cl)cc1Cl [2,4-D, 2,4-dichlorophenoxyacetic acid]","level of 2,4-D resistance","[1]; NEB population compared to the Nebraska 2,4-D sensitive population, Bernards et al. 2012",10 fold
same,level of resistance (dose response),[2],9 fold
CCOC(=O)CC(SP(=S)(OC)OC)C(=O)OCC (stereo not drawn) [malathion],"effect of pre-treatment on 2,4-D resistance phenotype",[3],reverted to sensitivity; also recorded: reversed the resistance phenotype
CS(=O)(=O)c1ccc(C(=O)C2C(=O)CCCC2=O)c([N+](=O)[O-])c1 [mesotrione],level of resistance (dose response),[2],~15 fold
CS(=O)(=O)c1ccc(C(=O)C2C(=O)CCCC2=O)c(Cl)c1COCC(F)(F)F [tembotrione],resistance to tembotrione,"[1]; NEB population compared to WUS, Murphy and Tranel, 2019",15 fold
same,resistance to tembotrione,"[2]; Murphy and Tranel, 2019",43 fold
